One data set has as its system Hepatitis C virus. Description: Antiviral activity against HCV infected in HuH7 cells after 3 days by luciferase reporter gene assay. Format: functional, organism-based, Hepacivirus hominis. Particulars: Huh-7, 72 h.
The nature of data set [1]: Cytotoxicity against human HuH7 cells by tetrazolium dye method. Format: cell-based, Huh-7.

As usually defined, the EC50 is the concentration that produces a half-maximal response. High values mean a less potent agent, low ones a more potent agent. In general, CC50 refers to the concentration giving 50% cytotoxicity. A higher CC50 goes with lower toxicity to the cells.

`CCCCn1c(=O)c2cc(OC)ccc2c2cc(C(O)(C(F)(F)F)C(F)(F)F)c(OC)cc21`: the EC50 in the data set with Hepatitis C virus stood at 0.17 µM. The CC50 in data set [1] was more than 10 µM.
`Cc1ncnc2c1ccn2[C@@H]1C=C(CO)[C@@H](O)[C@H]1O` registered an EC50 in the data set with Hepatitis C virus of more than 100 µM. Further, the CC50 in data set [1] is more than 100 µM.
`Cc1ncnc2c1c(F)cn2[C@@H]1C=C(CO)[C@@H](O)[C@H]1O`: the EC50 in the data set with Hepatitis C virus is more than 100 µM. The molecule also gave a CC50 in data set [1] of more than 100 µM.
Consider `Cc1ncnc2c1c(Cl)cn2[C@@H]1C=C(CO)[C@@H](O)[C@H]1O`, for which, in the data set on Hepatitis C virus, it took 41.7 µM to reach a half-maximal effect (EC50). In data set [1], this molecule had a CC50 of more than 100 µM.
`Cc1ncnc2c1c(Br)cn2[C@@H]1C=C(CO)[C@@H](O)[C@H]1O`: in the data set with Hepatitis C virus, it took 37.3 µM to reach a half-maximal effect (EC50). In data set [1], this molecule showed a CC50 of more than 100 µM.
For `Cc1ncnc2c1c(I)cn2[C@@H]1C=C(CO)[C@@H](O)[C@H]1O` the same measures were 46.2 µM and more than 100 µM.
On to `C=Cc1cn([C@@H]2C=C(CO)[C@@H](O)[C@H]2O)c2ncnc(C)c12`, for which the EC50 in the data set with Hepatitis C virus is 28 µM. In data set [1], the CC50 came to 52.8 µM.
In the data set on Hepatitis C virus, `C#Cc1cn([C@@H]2C=C(CO)[C@@H](O)[C@H]2O)c2ncnc(C)c12` yielded an EC50 of 67.7 µM. For the same molecule, in data set [1], the CC50 was more than 100 µM.

The record behind these values is ChEMBL document CHEMBL2202987, “Structure based medicinal chemistry approach to develop 4-methyl-7-deazaadenine carbocyclic nucleosides as anti-HCV agent” (Bioorg Med Chem Lett, 2012).
